#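 In this assay, cells in 96-well plates receive the compound at five concentrations for 48 hours. Endpoints are linearly interpolated between the surrounding concentrations. GI50: concentration for 50% inhibition of growth. At the TGI there is no net growth.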
# What was measured:
# Experiment in all cases: DTP human tumour cell line panel, 48 h
# HCT-116 colon = test system: HCT-116 colon
# MCF7 breast = test system: MCF7 breast
# HCT-15 colon = test system: HCT-15 colon
# EKVX NSCLC = test system: EKVX NSCLC
# MDA-MB-231 breast = test system: MDA-MB-231 breast
# IGROV1 ovarian = test system: IGROV1 ovarian
# SR leukemia = test system: SR leukemia
# OVCAR-5 ovarian = test system: OVCAR-5 ovarian
# NCI-H226 lung = test system: NCI-H226 lung
# NCI-H522 lung = test system: NCI-H522 lung
# COLO 205 colon = test system: COLO 205 colon
# BT-549 breast = test system: BT-549 breast
# SK-MEL-5 melanoma = test system: SK-MEL-5 melanoma
# KM12 colon = test system: KM12 colon
# UACC-62 melanoma = test system: UACC-62 melanoma
# RXF 393 renal = test system: RXF 393 renal
# HOP-92 NSCLC = test system: HOP-92 NSCLC
# A498 renal = test system: A498 renal
# UO-31 renal = test system: UO-31 renal
# SW-620 colon = test system: SW-620 colon
# MOLT-4 leukemia = test system: MOLT-4 leukemia
# UACC-257 melanoma = test system: UACC-257 melanoma
# ACHN renal = test system: ACHN renal
# HL-60(TB) leukemia = test system: HL-60(TB) leukemia
# SF-268 CNS = test system: SF-268 CNS
# OVCAR-4 ovarian = test system: OVCAR-4 ovarian
# OVCAR-3 ovarian = test system: OVCAR-3 ovarian
# HOP-62 NSCLC = test system: HOP-62 NSCLC
# SNB-19 CNS = test system: SNB-19 CNS
# SNB-75 CNS = test system: SNB-75 CNS
# M14 melanoma = test system: M14 melanoma
# NCI-H460 lung = test system: NCI-H460 lung
# MALME-3M melanoma = test system: MALME-3M melanoma
# HS 578T breast = test system: HS 578T breast
# HT29 colon = test system: HT29 colon
# SN12C renal = test system: SN12C renal
# CCRF-CEM leukemia = test system: CCRF-CEM leukemia
# NCI-H23 lung = test system: NCI-H23 lung
# HCC-2998 colon = test system: HCC-2998 colon
# T-47D breast = test system: T-47D breast
# DU-145 prostate = test system: DU-145 prostate
# PC-3 prostate = test system: PC-3 prostate
# K-562 leukemia = test system: K-562 leukemia
# NCI/ADR-RES ovarian = test system: NCI/ADR-RES ovarian
# RPMI-8226 leukemia = test system: RPMI-8226 leukemia
# 786-0 renal = test system: 786-0 renal
# MDA-MB-435 = test system: MDA-MB-435
# SF-539 CNS = test system: SF-539 CNS
# CAKI-1 renal = test system: CAKI-1 renal
# TK-10 renal = test system: TK-10 renal
# OVCAR-8 ovarian = test system: OVCAR-8 ovarian
# SK-MEL-2 melanoma = test system: SK-MEL-2 melanoma
# LOX IMVI melanoma = test system: LOX IMVI melanoma
# U251 CNS = test system: U251 CNS
# SK-OV-3 ovarian = test system: SK-OV-3 ovarian
# A549 NSCLC = test system: A549 NSCLC
# SK-MEL-28 melanoma = test system: SK-MEL-28 melanoma
structure (smiles),measurement,setting,value
N#Cc1c(N2CCOCC2)nc(=S)[nH]c1-c1ccco1,GI50,HCT-116 colon,15.6 µM
same,TGI,HCT-116 colon,> 100 µM
same,GI50,MCF7 breast,2.12 µM
same,TGI,MCF7 breast,> 100 µM
same,GI50,HCT-15 colon,6.2 µM
same,TGI,HCT-15 colon,> 100 µM
same,GI50,EKVX NSCLC,5.99 µM
same,TGI,EKVX NSCLC,78.7 µM
same,GI50,MDA-MB-231 breast,4.63 µM
same,TGI,MDA-MB-231 breast,> 100 µM
same,GI50,IGROV1 ovarian,1.86 µM
same,TGI,IGROV1 ovarian,13 µM
same,GI50,SR leukemia,2.8 µM
same,TGI,SR leukemia,51.7 µM
same,GI50,OVCAR-5 ovarian,4.18 µM
same,TGI,OVCAR-5 ovarian,88.3 µM
same,GI50,NCI-H226 lung,3.94 µM
same,TGI,NCI-H226 lung,63.5 µM
same,GI50,NCI-H522 lung,3.95 µM
same,TGI,NCI-H522 lung,> 100 µM
same,GI50,COLO 205 colon,5.7 µM
same,TGI,COLO 205 colon,70.3 µM
same,GI50,BT-549 breast,3.15 µM
same,TGI,BT-549 breast,18.1 µM
same,GI50,SK-MEL-5 melanoma,5.06 µM
same,TGI,SK-MEL-5 melanoma,> 100 µM
same,GI50,KM12 colon,10.4 µM
same,TGI,KM12 colon,> 100 µM
same,GI50,UACC-62 melanoma,2.91 µM
same,TGI,UACC-62 melanoma,32.7 µM
same,GI50,RXF 393 renal,12.9 µM
same,TGI,RXF 393 renal,> 100 µM
same,GI50,HOP-92 NSCLC,1.79 µM
same,TGI,HOP-92 NSCLC,> 100 µM
same,GI50,A498 renal,1.19 µM
same,TGI,A498 renal,7.23 µM
same,GI50,UO-31 renal,2.67 µM
same,TGI,UO-31 renal,72.3 µM
same,GI50,SW-620 colon,23.5 µM
same,TGI,SW-620 colon,> 100 µM
same,GI50,MOLT-4 leukemia,4.64 µM
same,TGI,MOLT-4 leukemia,51.1 µM
same,GI50,UACC-257 melanoma,22.4 µM
same,TGI,UACC-257 melanoma,> 100 µM
same,GI50,ACHN renal,5.75 µM
same,TGI,ACHN renal,> 100 µM
same,GI50,HL-60(TB) leukemia,4.26 µM
same,TGI,HL-60(TB) leukemia,> 100 µM
same,GI50,SF-268 CNS,10.9 µM
same,TGI,SF-268 CNS,> 100 µM
same,GI50,OVCAR-4 ovarian,16.9 µM
same,TGI,OVCAR-4 ovarian,> 100 µM
same,GI50,OVCAR-3 ovarian,7.93 µM
same,TGI,OVCAR-3 ovarian,49.8 µM
same,GI50,HOP-62 NSCLC,2.95 µM
same,TGI,HOP-62 NSCLC,9.16 µM
same,GI50,SNB-19 CNS,26 µM
same,TGI,SNB-19 CNS,> 100 µM
same,GI50,SNB-75 CNS,2.15 µM
same,TGI,SNB-75 CNS,55.6 µM
same,GI50,M14 melanoma,12.2 µM
same,TGI,M14 melanoma,> 100 µM
same,GI50,NCI-H460 lung,4.4 µM
same,TGI,NCI-H460 lung,> 100 µM
same,GI50,MALME-3M melanoma,2.18 µM
same,TGI,MALME-3M melanoma,8.18 µM
same,GI50,HS 578T breast,2.08 µM
same,TGI,HS 578T breast,17.3 µM
same,GI50,HT29 colon,9.56 µM
same,TGI,HT29 colon,> 100 µM
same,GI50,SN12C renal,4.46 µM
same,TGI,SN12C renal,> 100 µM
same,GI50,CCRF-CEM leukemia,5.52 µM
same,TGI,CCRF-CEM leukemia,52 µM
same,GI50,NCI-H23 lung,12.1 µM
same,TGI,NCI-H23 lung,> 100 µM
same,GI50,HCC-2998 colon,25.5 µM
same,TGI,HCC-2998 colon,> 100 µM
same,GI50,T-47D breast,1.3 µM
same,TGI,T-47D breast,5.91 µM
same,GI50,DU-145 prostate,10.2 µM
same,TGI,DU-145 prostate,> 100 µM
same,GI50,PC-3 prostate,0.19 µM
same,TGI,PC-3 prostate,3.17 µM
same,GI50,K-562 leukemia,24.7 µM
same,TGI,K-562 leukemia,> 100 µM
same,GI50,NCI/ADR-RES ovarian,15.6 µM
same,TGI,NCI/ADR-RES ovarian,> 100 µM
same,GI50,RPMI-8226 leukemia,1.58 µM
same,TGI,RPMI-8226 leukemia,16.4 µM
same,GI50,786-0 renal,6.2 µM
same,TGI,786-0 renal,80.8 µM
same,GI50,MDA-MB-435,15.9 µM
same,TGI,MDA-MB-435,> 100 µM
same,GI50,SF-539 CNS,6.34 µM
same,TGI,SF-539 CNS,69.9 µM
same,GI50,CAKI-1 renal,3.77 µM
same,TGI,CAKI-1 renal,62.4 µM
same,GI50,TK-10 renal,5.35 µM
same,TGI,TK-10 renal,39.7 µM
same,GI50,OVCAR-8 ovarian,18.3 µM
same,TGI,OVCAR-8 ovarian,> 100 µM
same,GI50,SK-MEL-2 melanoma,2.38 µM
same,TGI,SK-MEL-2 melanoma,33.6 µM
same,GI50,LOX IMVI melanoma,6.68 µM
same,TGI,LOX IMVI melanoma,> 100 µM
same,GI50,U251 CNS,20.2 µM
same,TGI,U251 CNS,> 100 µM
same,GI50,SK-OV-3 ovarian,2.72 µM
same,TGI,SK-OV-3 ovarian,14.7 µM
same,GI50,A549 NSCLC,14.9 µM
same,TGI,A549 NSCLC,> 100 µM
same,GI50,SK-MEL-28 melanoma,8.45 µM
same,TGI,SK-MEL-28 melanoma,> 100 µM

# — PubChem BioAssay (NCI)
